Data taken from US10273229B2, “N-substituted 4-aminoquinazoline derivatives and methods of use” (priority 2014, dated 2019).

Experiments:
ErbB4 = ErbB4 (Homo sapiens, UniProt Q15303); experiment: ErbB4 kinase inhibition (Table 1); type: biochemical
Syk = Syk (Homo sapiens, UniProt P43405); experiment: Syk kinase inhibition (Table 1)
EGFR [1] = molecular target: T1, EGFR (Homo sapiens, UniProt P00533); experiment: EGFR kinase inhibition (Table 1)
CYP3A4 [2] = molecular target: T2, CYP3A4 (Homo sapiens, UniProt P08684); details: in words; for CYP3A4 inhibitor potency after preincubation with the test compound, compared with lapatinib: time dependent arm
T2 sequence (P08684 whole entry): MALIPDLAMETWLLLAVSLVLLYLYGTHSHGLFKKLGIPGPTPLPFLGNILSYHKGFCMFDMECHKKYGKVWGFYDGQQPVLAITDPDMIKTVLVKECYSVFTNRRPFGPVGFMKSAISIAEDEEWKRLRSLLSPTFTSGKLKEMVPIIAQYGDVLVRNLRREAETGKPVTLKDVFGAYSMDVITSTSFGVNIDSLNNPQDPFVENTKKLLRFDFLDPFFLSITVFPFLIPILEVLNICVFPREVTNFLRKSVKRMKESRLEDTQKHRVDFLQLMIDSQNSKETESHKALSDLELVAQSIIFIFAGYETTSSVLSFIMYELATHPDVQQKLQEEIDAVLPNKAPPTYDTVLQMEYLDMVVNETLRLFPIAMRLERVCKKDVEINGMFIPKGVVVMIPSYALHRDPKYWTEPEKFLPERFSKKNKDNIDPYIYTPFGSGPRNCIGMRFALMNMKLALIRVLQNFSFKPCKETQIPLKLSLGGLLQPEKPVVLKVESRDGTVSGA

human ErbB2 [3] = molecular target: T3, human ErbB2 (Homo sapiens, UniProt P04626); experiment: ErbB2 kinase assay, FRET peptide substrate (Example 3); type: biochemical; details: ErbB2 or EGFR (either kinase); in words
T3 sequence (P04626 23-1255): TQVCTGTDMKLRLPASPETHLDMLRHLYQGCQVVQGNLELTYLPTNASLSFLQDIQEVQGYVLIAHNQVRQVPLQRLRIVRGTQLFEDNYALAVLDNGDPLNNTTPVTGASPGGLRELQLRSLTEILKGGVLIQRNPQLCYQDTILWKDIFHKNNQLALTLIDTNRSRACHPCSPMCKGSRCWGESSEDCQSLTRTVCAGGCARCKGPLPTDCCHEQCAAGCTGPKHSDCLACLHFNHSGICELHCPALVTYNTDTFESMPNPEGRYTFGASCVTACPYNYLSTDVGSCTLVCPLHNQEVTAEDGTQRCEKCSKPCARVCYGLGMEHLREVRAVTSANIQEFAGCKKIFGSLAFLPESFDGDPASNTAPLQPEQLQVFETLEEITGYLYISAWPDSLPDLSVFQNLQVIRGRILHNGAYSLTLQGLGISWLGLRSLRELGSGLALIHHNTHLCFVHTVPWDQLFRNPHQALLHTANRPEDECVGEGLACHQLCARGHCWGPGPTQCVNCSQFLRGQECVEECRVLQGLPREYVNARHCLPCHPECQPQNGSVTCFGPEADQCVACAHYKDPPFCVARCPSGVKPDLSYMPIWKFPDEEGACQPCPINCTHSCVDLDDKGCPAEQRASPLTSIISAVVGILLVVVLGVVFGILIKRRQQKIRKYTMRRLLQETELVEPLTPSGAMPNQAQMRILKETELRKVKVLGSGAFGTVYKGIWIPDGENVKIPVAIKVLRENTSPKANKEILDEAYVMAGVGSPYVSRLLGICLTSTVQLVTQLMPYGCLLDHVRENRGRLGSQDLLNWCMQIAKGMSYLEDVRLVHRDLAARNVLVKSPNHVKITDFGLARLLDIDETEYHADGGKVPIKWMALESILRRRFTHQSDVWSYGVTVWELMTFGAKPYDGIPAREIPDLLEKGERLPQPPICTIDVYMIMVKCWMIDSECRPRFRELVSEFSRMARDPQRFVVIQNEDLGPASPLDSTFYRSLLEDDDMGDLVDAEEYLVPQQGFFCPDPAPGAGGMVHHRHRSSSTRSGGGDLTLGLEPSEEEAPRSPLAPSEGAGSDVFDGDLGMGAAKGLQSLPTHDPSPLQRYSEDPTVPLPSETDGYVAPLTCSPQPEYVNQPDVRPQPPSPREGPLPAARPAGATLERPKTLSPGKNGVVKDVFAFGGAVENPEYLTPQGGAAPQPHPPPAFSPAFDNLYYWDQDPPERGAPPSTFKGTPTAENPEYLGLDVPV
Protocol: Kinase assays were performed using standard protocols known to those skilled in the art. In brief, kinase, peptide substrate labeled with both coumarin (donor fluorophore) and fluorescein (acceptor fluorophore), ATP, and test compound are incubated together in a kinase reaction buffer. Typically, the reaction was stopped by development reagent (protease) with certain dilution factor after 2 hours. The plate was analyzed in Perkin Elmer Envision by FRET mode. The high ratio of coumarin/fluorescein represents 0% phosphorylation rate while low ratio of coumarin/fluorescein represents 100% phosphorylation rate.

CYP3A4 [4] = molecular target: T2, CYP3A4
human ErbB2 [5] = molecular target: T3, human ErbB2; experiment: ErbB2 kinase assay at RBC, 33P-ATP filter binding (Example 5); type: biochemical; details: in words
Protocol: The synthesis and biochemical testing of these compounds was completed using alternate CROs as a control for characterizing compounds.
(§1) Kinase assays were performed at RBC using standard protocols known to those skilled in the art. In brief, kinase, any required cofactors, substrate in DMSO, and kinase reaction mixture (by acoustic technology; Echo 550; nanoliter range) were incubated for 20 minutes at room temperature. 33P-ATP was added to initiate the reaction, which was incubated for 2 hours at room temperature.

EGFR [6] = molecular target: T1, EGFR; experiment: EGFR kinase assay at RBC, 33P-ATP filter binding (Example 5); type: biochemical; details: in words
Protocol: as §1, with “The synthesis and biochemical testing of these compounds was completed using alternate CROs as a control for characterizing compounds. Kinase” for “Kinase”

BT-474 cells [7] = experiment: Cytotoxicity against BT-474 cells, CellTiter 96 (Example 4); type: cell-based, human; details: in words
Protocol: (§2) All of the test compounds were kept between 4° C. to 8° C. in solid form or as solution in DMSO. The cell lines BT-474 and NCI-N87 were obtained from the ATCC. The cell lines were maintained in liquid nitrogen. Cell lines were prepared by thawing a 1 mL vial of the cell line and splitting it into two T-75 flasks with 10 mL of the appropriate media. BT-474 and NCI-N87 both utilized RPMI 1640 with varying glucose content (1 g/L for BT-474 and 4.5 g/L for NCI-N87). The cell lines were trypsinized and split into two T-150 flasks each time the cell lines reached 70-90% confluency. When there were at least two confluent T-150 flasks of cell lines available, cultures were trypsinized and the cells enumerated using a hemocytometer and added to a 96-well microtiter plate at 1.5×10^5 cells/mL. The 96-well plates were then incubated at 37° C. with 5% CO2 for 24 hours to allow enough time for the cells to adhere to the wells. […] Lapatinib and media without the test compounds were used as controls. All 96-well plates were incubated at 37° C. with 5% CO2 for 3 days with plates containing BT-474 and for 6 days with plates containing NCI-N87. […] After recovery, cell viability was determined using the CellTiter 96® Aqueous One Solution Cell Proliferation Assay kit (Promega). The optical density (OD) was read using a SPECTRAMAX® M5 Microplate Reader (Molecular Devices) at 490 nm. […]

NCI-N87 cells = experiment: Cytotoxicity against NCI-N87 cells, CellTiter 96 (Example 4); type: cell-based; details: in words
Protocol: as §2

BT-474 cells [8] = experiment: Cytotoxicity against BT-474 cells at RBC, Cell Titer-Glo 2.0 (Example 6); type: cell-based, human; details: in words
Protocol: All of the test compounds were kept between 4° C. to 8° C. in solid form or as solution in DMSO. The cell line BT-474 was obtained from the ATCC. Test compounds were dissolved in DMSO (10 mM stock). Cell Titer-Glo® 2.0 Luminescent cell viability assay reagent was obtained from Promega. BT474 human breast cancer cell line was grown in Hybri-care medium supplemented with 1.5 g/L sodium bicarbonate and 10% FBS. 100 μg/ml penicillin and 100 μg/ml streptomycin were added to all culture media. Cultures were maintained at 37° C. in a humidified atmosphere of 5% CO2 and 95% air. Test compounds in DMSO were added in a source plate. 25 nL of test compounds was delivered from the source plate to each well of the 384-well cell culture plates by Echo 550. 25 μl of culture medium containing 1000 cells for each cell line was added to the wells of the cell culture plates. […] The contents were mixed on an orbital shaker for 2 minutes and incubated at room temperature for 10 minutes to stabilize luminescent signal Luminescence was recorded by Envision 2104 Multilabel Reader (Perkin Elmer). The number of viable cells in culture was determined based on quantization of the ATP present in each culture well. The IC50 values were calculated and the IC50 curves were plotted using the GraphPad Prism 4 program based on a sigmoidal dose-response equation.

T1 sequence (P00533 25-1210): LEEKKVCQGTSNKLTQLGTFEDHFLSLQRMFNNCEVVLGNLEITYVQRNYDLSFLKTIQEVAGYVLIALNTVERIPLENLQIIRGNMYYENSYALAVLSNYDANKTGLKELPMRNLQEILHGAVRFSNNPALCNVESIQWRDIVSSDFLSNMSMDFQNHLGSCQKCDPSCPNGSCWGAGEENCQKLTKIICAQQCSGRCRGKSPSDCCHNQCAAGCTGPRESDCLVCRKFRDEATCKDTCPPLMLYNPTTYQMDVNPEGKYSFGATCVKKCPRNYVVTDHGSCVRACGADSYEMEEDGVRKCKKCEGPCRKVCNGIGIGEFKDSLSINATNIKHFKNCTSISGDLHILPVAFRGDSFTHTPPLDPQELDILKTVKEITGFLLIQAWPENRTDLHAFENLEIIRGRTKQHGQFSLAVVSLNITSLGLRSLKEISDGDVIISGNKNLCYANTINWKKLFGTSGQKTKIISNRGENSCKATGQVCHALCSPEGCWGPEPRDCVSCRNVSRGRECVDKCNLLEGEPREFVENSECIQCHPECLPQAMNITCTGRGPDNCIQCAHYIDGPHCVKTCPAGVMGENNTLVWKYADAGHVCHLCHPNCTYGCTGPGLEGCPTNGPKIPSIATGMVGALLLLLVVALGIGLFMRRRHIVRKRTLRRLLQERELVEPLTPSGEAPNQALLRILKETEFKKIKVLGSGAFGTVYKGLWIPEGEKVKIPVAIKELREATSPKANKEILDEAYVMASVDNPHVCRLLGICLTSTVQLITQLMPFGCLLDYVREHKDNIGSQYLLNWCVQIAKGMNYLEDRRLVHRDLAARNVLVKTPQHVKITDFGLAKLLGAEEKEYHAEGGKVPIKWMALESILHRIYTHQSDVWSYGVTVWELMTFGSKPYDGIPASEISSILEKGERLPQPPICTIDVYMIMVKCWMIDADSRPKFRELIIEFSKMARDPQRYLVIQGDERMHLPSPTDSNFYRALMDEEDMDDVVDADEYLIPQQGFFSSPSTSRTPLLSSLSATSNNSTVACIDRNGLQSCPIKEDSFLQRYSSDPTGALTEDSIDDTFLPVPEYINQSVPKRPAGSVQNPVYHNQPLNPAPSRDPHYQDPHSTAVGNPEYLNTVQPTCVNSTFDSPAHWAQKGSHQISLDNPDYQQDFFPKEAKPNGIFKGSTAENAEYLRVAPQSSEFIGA
Chain of ErbB4 (Q15303 26-1308, species assumed): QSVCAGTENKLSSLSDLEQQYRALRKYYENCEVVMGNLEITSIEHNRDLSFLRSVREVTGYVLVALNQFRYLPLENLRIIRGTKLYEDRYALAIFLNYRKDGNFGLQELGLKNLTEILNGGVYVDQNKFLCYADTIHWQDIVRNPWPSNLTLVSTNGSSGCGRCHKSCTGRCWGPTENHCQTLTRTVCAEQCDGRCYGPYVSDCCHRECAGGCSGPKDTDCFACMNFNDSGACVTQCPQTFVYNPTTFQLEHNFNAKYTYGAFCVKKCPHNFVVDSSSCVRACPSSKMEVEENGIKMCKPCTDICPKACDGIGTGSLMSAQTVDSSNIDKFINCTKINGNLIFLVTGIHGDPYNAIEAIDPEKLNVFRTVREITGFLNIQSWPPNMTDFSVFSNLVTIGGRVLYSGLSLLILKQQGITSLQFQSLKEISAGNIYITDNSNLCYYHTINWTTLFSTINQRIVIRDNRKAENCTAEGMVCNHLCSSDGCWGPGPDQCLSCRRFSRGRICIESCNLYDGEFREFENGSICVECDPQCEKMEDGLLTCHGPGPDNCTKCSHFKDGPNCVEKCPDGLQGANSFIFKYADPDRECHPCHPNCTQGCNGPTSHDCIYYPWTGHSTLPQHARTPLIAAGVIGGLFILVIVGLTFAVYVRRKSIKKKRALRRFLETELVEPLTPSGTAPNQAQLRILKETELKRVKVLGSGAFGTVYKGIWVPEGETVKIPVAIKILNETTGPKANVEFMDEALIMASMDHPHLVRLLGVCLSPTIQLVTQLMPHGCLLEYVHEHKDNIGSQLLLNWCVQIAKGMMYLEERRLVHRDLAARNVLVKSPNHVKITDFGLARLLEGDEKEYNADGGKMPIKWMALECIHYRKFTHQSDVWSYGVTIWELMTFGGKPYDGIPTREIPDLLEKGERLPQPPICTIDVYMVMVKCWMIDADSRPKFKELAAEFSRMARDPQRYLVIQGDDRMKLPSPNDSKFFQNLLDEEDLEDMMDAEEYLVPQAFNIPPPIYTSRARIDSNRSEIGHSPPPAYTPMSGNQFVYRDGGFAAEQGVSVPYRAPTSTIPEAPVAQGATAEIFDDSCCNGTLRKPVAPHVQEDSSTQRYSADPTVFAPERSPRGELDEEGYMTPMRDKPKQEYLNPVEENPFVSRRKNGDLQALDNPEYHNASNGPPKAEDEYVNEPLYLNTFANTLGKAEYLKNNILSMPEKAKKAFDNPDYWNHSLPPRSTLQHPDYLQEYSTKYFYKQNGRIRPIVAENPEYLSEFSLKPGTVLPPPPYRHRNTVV

Structure (SMILES)	CYP3A4 inhibitor potency compared with lapatinib (CYP3A4 [2])	CYP3A4 inhibitor potency after preincubation with the test compound, compared with lapatinib (CYP3A4 [2])	inhibition of ErbB2 or EGFR, potency compared with lapatinib (human ErbB2 [3])	Ratio IC50:TD*** (CYP3A4 [4])	other results
CS(=O)(=O)CCN(O)Cc1ccc(-c2ccc3ncnc(Nc4ccc(OCc5cccc(F)c5)c(Cl)c4)c3c2)o1 [Compound 2]	–	–	–	–	IC50 (ErbB4): 32 nM; IC50 (Syk): > 10000 nM; IC50 (EGFR [1]): 72 nM
CS(=O)(=O)CCN(Cc1ccc(-c2ccc3ncnc(Nc4ccc(OCc5cccc(F)c5)c(Cl)c4)c3c2)o1)S(C)(=O)=O [Compound 7]	less potent	less potent	better potency than lapatinib	++	BT-474 IC50 compared with lapatinib (BT-474 cells [7]): lower than those observed for lapatinib; NCI-N87 IC50 compared with lapatinib (NCI-N87 cells): lower than those observed for lapatinib
CC(=O)N(CCS(C)(=O)=O)Cc1ccc(-c2ccc3ncnc(Nc4ccc(OCc5cccc(F)c5)c(Cl)c4)c3c2)o1 [Compound 8]	–	less potent	better potency than lapatinib	–	–
CS(=O)(=O)CCN(Cc1ccc(-c2ccc3ncnc(Nc4ccc(OCc5cccc(F)c5)c(Cl)c4)c3c2)o1)C1COC1 [Compound 9]	–	less potent	better potency than lapatinib	+++	BT-474 IC50 compared with lapatinib (BT-474 cells [7]): lower than those observed for lapatinib; NCI-N87 IC50 compared with lapatinib (NCI-N87 cells): lower than those observed for lapatinib; BT-474 IC50 compared with lapatinib (BT-474 cells [8]): lower IC50 than lapatinib
CS(=O)(=O)CCN(Cc1ccc(-c2ccc3ncnc(Nc4ccc(OCc5cccc(F)c5)c(Cl)c4)c3c2)o1)C1CCC1 [Compound 10]	less potent	less potent	better potency than lapatinib	+	time dependent shift of CYP3A4 inhibition compared with lapatinib (CYP3A4 [2]): possible exception

Further lines, with some results ahead:

CYP3A4 inhibitor potency compared with lapatinib (CYP3A4 [2])	CYP3A4 inhibitor potency after preincubation with the test compound, compared with lapatinib (CYP3A4 [2])	inhibition of ErbB2 or EGFR, potency compared with lapatinib (human ErbB2 [3])	Structure (SMILES)	Ratio IC50:TD*** (CYP3A4 [4])	other results
less potent	less potent	–	CS(=O)(=O)CCN(Cc1ccc(-c2ccc3ncnc(Nc4ccc(OCc5cccc(F)c5)c(Cl)c4)c3c2)o1)OC(N)=O [Compound 3]	–	–
less potent	less potent	–	CN(C)C(=O)ON(CCS(C)(=O)=O)Cc1ccc(-c2ccc3ncnc(Nc4ccc(OCc5cccc(F)c5)c(Cl)c4)c3c2)o1 [Compound 4]	–	–
–	–	better potency than lapatinib	COC(=O)ON(CCS(C)(=O)=O)Cc1ccc(-c2ccc3ncnc(Nc4ccc(OCc5cccc(F)c5)c(Cl)c4)c3c2)o1 [Compound 5]	++	–
less potent	less potent	better potency than lapatinib	CS(=O)(=O)CCN(CC(=O)O)Cc1ccc(-c2ccc3ncnc(Nc4ccc(OCc5cccc(F)c5)c(Cl)c4)c3c2)o1 [Compound 6]	+++	ErbB2 inhibition potency compared with lapatinib (human ErbB2 [5]): better potency than lapatinib; EGFR inhibition potency compared with lapatinib (EGFR [6]): better potency than lapatinib
